Laboratory results: publication PMC5727842, “Antioxidant and Antidiabetic Effects of Flavonoids: A Structure-Activity Relationship Based Study” (BioMed Research International, 2017)
In brackets after ≈: the same amount, converted by molar mass.

Legend:
[1] = Rapid screening of radical scavenging activity by dot blot assay (DPPH staining); settings: silica sheet stained with DPPH in MeOH, dilutions from 1000 μg/mL
Protocol: An aliquot (20 μL) of each dilution of each group was carefully loaded on a […] TLC plate and allowed to dry for 10 min. Drops of each sample were loaded in the order of decreased concentration along the 16 columns. The staining of the silica plate was based on the procedure of Soler-Rivas et al.. […] The intensity of the yellow color depends upon the amount and nature of radical scavenger present in the flavonoids.

DPP-4 = molecular target: T1, DPP-4 (Homo sapiens, UniProt P27487); assay: Dipeptidyl peptidase IV (DPP-4) inhibitory assay; assay type: biochemical; settings: Table 3; mean ± SEM (n = 3); NA: not active
T1 construct: purchased Cayman (Michigan, USA)
Protocol: Dipeptidyl peptidase (IV) inhibitors work by inhibiting the action of this enzyme, thereby prolonging the activity of incretins that play an important role in insulin secretion and blood glucose control regulation. DPP-4 inhibitory assay was performed as per the standard method (Cayman, USA). Firstly, 1 mg of sample was dissolved in 10% of DMSO and MeOH as the stock solution. For initial activity (100%), 10 μL of MeOH, 30 μL of diluted assay buffer, and 10 μL of diluted DPP-4 (Cayman, USA) were added to 96-well microplate. […] For background well, 10 μL of MeOH and 40 μL of diluted assay buffer were added. Then, 10 μL of prepared sample and 30 μL of diluted assay buffer were added with 10 μL of diluted DPP-4. After that, 50 μL of substrate solution was added to all wells to initiate the reaction and further incubated in the dark at 37°C for 30 min. Finally, plate was read at 360 nm of excitation wavelength and 465 nm of emission wavelength using fluorescence microplate reader (Perkin Elmer, Germany). All determinations were done in triplicate and half maximal concentration (IC50) values were calculated from the percentage of inhibition based on the linear regression analysis. The equation given below was applied to calculate the inhibitory activity (%):(5) Inhibitory activity%=Initial Activity−Sample/Initial Activity×100%.
For DPP-4 inhibitory assay, the reaction is based on the cleavage of the peptide bond by DPP releasing the free Gly-Pro-aminomethylcoumarin group, a fluorogenic substrate resulting in fluorescence excitation and emission.

[2] = Ferric reducing antioxidant power (FRAP); settings: for FRAP (AAE μg): ascorbic acid equivalent, mean ± SEM (n = 3), Table 2
Protocol: This assay was based on the reduction of the ferric tripyridyltriazine (Fe III-TPTZ) complex to the ferrous ion (Fe II) at a low pH forming an intense blue color. In the FRAP assay, compounds that are rich in antioxidant effect exert their action by breaking the free radical chain by donating a hydrogen atom. Briefly, ferric reducing antioxidant power (FRAP) reagent (2.5 mL of a 10 mM TPTZ solution in 40 mM HCl, 2.5 mL of 20 mM FeCl3, and 25 mL of 0.1 M acetate buffer pH 3.6) was prepared and incubated for 10 min at 37°C. Then 20 μL of each compound and ascorbic acid (standard) and 40 μL of FRAP reagent were added to 140 μL of distilled water in a 96-well plate producing a blue-colored solution. The solutions were kept at room temperature for 20 min in the dark and then measured at 593 nm with a microplate reader (Tecan, Switzerland) using a reagent blank composed of 40 μL of FRAP reagents in 200 μL of distilled water. A calibration curve was prepared with a serial dilution of ascorbic acid (standard). The total antioxidant capacity was calculated by interpolating the measured absorbance of the calibration curve and expressed as ascorbic acid equivalents. The results were corrected for dilution and expressed as AAE μg of ascorbic acid/g.

[3] = ABTS+ radical scavenging assay; settings: 734 nm, mean ± SEM (n = 3)
Protocol: An improved ABTS^+ radical decolorization assay was carried out involving direct production of the blue/green ABTS^+ chromophore through the reaction between ABTS and potassium persulfate. Addition of antioxidant to the preformed radical cation reduces it to ABTS to an extent on a time scale depending on the antioxidant activity, the concentration of the antioxidant, and the duration of the reaction. 1 ml ABTS was dissolved in water to make 7 mM concentration of the resultant solution. […] The resultant reaction mixture was allowed to stand in the dark at room temperature for 12–16 h before being used. The ABTS^+ radical solution was diluted with MeOH to an absorbance of 0.7 (±0.02) at 734 nm. Then, 100 μl of sample at various concentrations (1000–0.4889 μg/mL) was mixed with 100 μL of diluted ABTS^+ radical. Each concentration was analyzed in triplicate and the percentage decrease of absorbance at 734 nm with a microplate reader (Tecan NanoQuant Infinite M200, Switzerland) was calculated for each point and the antioxidant capacity of the tested compounds was expressed as percent inhibition (%). The radical scavenging activity of the compounds was measured according to the following equation [29]:(2) % inhibition=Acontrol−Asample/Acontrol×100. IC50 values were calculated by linear regression of plots, and the average percent of scavenging capacity was taken from three replicates. Trolox was used as a standard in comparison for the determination of the antioxidant activity of the flavonoids.

[4] = molecular target: α-glucosidase from Saccharomyces cerevisiae; assay: α-Glucosidase inhibitory assay; assay type: biochemical; settings: Table 3; mean ± SEM (n = 3); NA: not active
Protocol: α-Glucosidase inhibitory activity of the flavonoids was carried out according to the standard method with minor modification. […] A solution of 30 mM phosphate buffer (pH 6.5) was used to prepare stock solution of the sample to form a final concentration of 160 μg/mL. Then, 10 μL/well of sample was mixed with 15 μL/well of α-glucosidase from Saccharomyces cerevisiae (Megazyme, Ireland). 50 mM buffer (pH 6.5) was used to prepare the enzyme solution. Then, 115 μL/well of 30 mM buffer (pH 6.5) was added and incubated for 5 min at room temperature. Then, 75 μL/well of PNP-glucoside was added to initiate reaction and incubated at room temperature for 15 min. Finally, about 50 μL glycine at pH 10 was added to stop the reaction. The final volume of 250 μL of compound, positive control, enzyme, 30 mM buffer, and substrate was located in 96-well microplate. The absorbance (Abs) was measured using microplate reader (Tecan NanoQuant Infinite M200, Switzerland) at 405 nm to represent the amount of p-nitrophenol released from PNP-glucoside. […] The equation given below was used to calculate the inhibitory activity (%):(4) Inhibitory activity%=Abs control−Abs sample/Abs control×100%.
Tested on yeast α-glycosidase, the reaction is initiated by reacting the inhibitor (sample) with the α-glycosidase enzyme that competes with […] for the binding site, thus releasing ρ-nitrophenol which was measured in the assay.

[5] = DPPH radical scavenging assay; settings: 30 min, 517 nm, mean ± SEM (n = 3)
Protocol: Each sample's stock solution was diluted to final concentrations of 1000–0.4889 μg/mL in MeOH. A total of 1 mL of a 0.3 mM DPPH methanolic solution was added to 2.5 mL of sample solution of different concentrations and allowed to react at room temperature. After 30 min, the absorbance (Abs) values were measured at 517 nm with a microplate reader (Tecan NanoQuant Infinite M200, Switzerland) and converted into the percentage antioxidant activity using the following equation described previously: (1) % antioxidant activity=100−Abssample−Abssample blank/Abscontrol−Abscontrol blank×100. MeOH + compound solution was used as a blank, while DPPH solution plus MeOH was used as a negative control. The positive controls were DPPH solution plus 1 mM ascorbic acid. The IC50 values were calculated by linear regression of plots. The average percent of scavenging capacity was taken from three replicates.

[6] = molecular target: T2, xanthine oxidase from buttermilk (Bos taurus, UniProt P80457); assay: Xanthine oxidase inhibitory assay (XOI); assay type: biochemical
T2 construct: 0.3 U/mL enzymes (xanthine oxidase from buttermilk); purchased Sigma-Aldrich (Singapore); host or cells: buttermilk (natural source)
Protocol: XO catalyzes the oxidation of hypoxanthine to xanthine and subsequently to uric acid. The inhibition of XO reduces both vascular oxidative stress and circulating levels of uric acid. This assay is based on the fact that the superoxide anions are generated by the xanthine. The xanthine oxidase inhibitory activity was measured spectrophotometrically (Tecan NanoQuant Infinite M200, Switzerland) at 295 nm under aerobic condition with slight modification. The reaction mixture contained 50 mM phosphate buffer (pH 7.5), 0.15 mM xanthine (substrate), and 0.3 U/mL enzymes (xanthine oxidase from buttermilk). Samples were prepared by dissolving 1 mg in 5% DMSO in MeOH which gives sample concentration of 144.0 μg/mL in assay. […] The absorption increment at 295 nm indicates the formation of […] of uric acid/min at 25°C. […] All determination was done in triplicate and half maximal concentration (IC50) values were calculated from the percentage of inhibition. XO inhibition activity was expressed as the percentage inhibition of XO as follows:(3) % of inhibition=AbsA−B−C−D/AbsA−B×100, where A is the negative control with B as the blank of A which is without the enzyme and the sample while C is the activity of the sample with enzyme with D as the blank of the sample without enzyme.

T1 sequence (P27487 whole entry): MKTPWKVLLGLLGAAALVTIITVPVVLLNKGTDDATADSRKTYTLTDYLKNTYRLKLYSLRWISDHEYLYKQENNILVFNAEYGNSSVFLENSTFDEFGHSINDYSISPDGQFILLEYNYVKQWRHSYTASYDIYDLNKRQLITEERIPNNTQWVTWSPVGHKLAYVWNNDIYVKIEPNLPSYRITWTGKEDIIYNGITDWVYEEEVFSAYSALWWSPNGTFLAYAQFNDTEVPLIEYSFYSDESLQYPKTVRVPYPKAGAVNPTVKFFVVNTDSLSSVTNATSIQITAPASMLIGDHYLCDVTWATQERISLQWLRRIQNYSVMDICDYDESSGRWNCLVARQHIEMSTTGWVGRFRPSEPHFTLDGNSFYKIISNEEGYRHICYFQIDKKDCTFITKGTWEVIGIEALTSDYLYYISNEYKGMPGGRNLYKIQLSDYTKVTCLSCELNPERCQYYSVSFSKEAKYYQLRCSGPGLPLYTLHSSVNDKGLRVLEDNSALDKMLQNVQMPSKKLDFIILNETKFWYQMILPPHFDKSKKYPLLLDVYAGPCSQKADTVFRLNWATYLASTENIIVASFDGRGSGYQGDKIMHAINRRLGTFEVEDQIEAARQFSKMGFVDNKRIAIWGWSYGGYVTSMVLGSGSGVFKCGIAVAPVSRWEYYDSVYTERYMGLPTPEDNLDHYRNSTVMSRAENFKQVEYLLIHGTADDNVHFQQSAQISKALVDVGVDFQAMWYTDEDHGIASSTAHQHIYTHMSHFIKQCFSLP
T2 sequence (P80457 whole entry): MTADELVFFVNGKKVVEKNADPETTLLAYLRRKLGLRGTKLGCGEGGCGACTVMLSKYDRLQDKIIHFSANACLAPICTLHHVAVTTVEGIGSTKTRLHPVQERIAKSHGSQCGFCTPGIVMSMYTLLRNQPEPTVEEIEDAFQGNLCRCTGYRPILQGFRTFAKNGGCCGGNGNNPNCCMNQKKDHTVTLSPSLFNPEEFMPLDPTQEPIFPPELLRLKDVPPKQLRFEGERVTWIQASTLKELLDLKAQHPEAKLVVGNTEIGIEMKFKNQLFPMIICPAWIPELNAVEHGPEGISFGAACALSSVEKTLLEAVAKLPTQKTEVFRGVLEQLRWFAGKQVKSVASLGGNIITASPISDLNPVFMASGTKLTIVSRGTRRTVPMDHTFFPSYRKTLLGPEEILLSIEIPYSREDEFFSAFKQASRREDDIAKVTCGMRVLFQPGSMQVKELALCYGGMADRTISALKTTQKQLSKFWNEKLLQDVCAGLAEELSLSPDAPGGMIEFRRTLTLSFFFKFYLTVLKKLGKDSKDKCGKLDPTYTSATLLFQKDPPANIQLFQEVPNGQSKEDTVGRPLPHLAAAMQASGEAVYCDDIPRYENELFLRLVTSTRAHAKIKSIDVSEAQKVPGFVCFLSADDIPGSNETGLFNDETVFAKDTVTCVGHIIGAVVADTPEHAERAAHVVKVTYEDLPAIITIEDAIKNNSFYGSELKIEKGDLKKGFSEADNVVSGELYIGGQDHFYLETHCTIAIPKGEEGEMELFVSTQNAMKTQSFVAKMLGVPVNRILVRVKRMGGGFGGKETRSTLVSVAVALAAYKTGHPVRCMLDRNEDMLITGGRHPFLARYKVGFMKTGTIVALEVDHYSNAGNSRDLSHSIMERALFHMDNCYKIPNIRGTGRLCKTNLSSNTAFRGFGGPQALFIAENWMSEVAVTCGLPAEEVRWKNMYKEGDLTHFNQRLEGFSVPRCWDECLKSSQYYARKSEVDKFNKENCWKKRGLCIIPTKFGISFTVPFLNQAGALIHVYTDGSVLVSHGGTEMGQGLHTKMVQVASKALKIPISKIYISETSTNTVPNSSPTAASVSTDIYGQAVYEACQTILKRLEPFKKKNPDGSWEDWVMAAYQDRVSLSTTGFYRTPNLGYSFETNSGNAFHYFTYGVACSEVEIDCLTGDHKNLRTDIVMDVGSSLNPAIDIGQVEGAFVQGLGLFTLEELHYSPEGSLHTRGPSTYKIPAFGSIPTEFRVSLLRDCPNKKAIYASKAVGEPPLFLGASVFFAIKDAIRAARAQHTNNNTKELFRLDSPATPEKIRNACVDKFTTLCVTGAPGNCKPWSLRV

| SMILES | radical scavenging activity by dot blot (intensity of yellow spots) [1] | IC50 (DPP-4) [µM] | FRAP antioxidant capacity [2] | FRAP (AAE μg) [2] | IC50 ABTS+ [3] | IC50 ABTS+ ([3]; listed as wogonin) [µg/mL] | IC50 α-Glucosidase [4] | IC50 DPPH [5] | xanthine oxidase inhibitory effect (in words) ([6]; discussion) | IC50 ([6]; xanthine oxidase inhibition, 295 nm, mean ± SEM (n = 3), NA: not active) [µM] |
| --- | --- | --- | --- | --- | --- | --- | --- | --- | --- | --- |
| COc1c(O)cc(O)c2c(=O)cc(-c3ccccc3)oc12 [Wogonin, 5,7-Dihydroxy-8-methoxyflavone] | intermediate radical scavenging activity | > 352 | 39.15 ± 1.68 AAE μg of ascorbic acid/g | 39.15 ± 1.68^E AAE μg | 52.63 ± 2.99^D µg/ml | 52.65 ± 2.99 (≈ 185 µM) | >100^A µg/mg | >100^B µg/ml | – | – |
| COc1ccc2c(=O)cc(-c3ccccc3)oc2c1O [8-Hydroxy-7-methoxyflavone] | intermediate radical scavenging activity | > 373 | 104.92 ± 8.29 AAE μg of ascorbic acid/g | 104.92 ± 8.29^D AAE μg | 3.19 ± 0.15^F µg/ml | – | >100^A µg/mg | 68.24 ± 3.70^C µg/ml | – | – |
| O=c1cc(-c2ccccc2)oc2c(O)c(O)cc(O)c12 [Norwogonin, 5,7,8-Trihydroxyflavone] | intermediate radical scavenging activity | > 370 | 177.37 ± 1.82 AAE μg of ascorbic acid/g | 152.14 ± 7.30^C AAE μg | 1.24 ± 0.19^FG µg/ml | – | >100^A µg/mg | 35.61 ± 1.68^D µg/ml | – | – |
| COc1c(OC(C)=O)cc(OC(C)=O)c2c(=O)cc(-c3ccccc3)oc12 [Acetate (wogonin), 5,7-Diacetoxy-8-methoxyflavone] | did not show any spot | – | 5.06 ± 3.24 AAE μg of ascorbic acid/g | 5.06 ± 3.24^G AAE μg | >200^A µg/ml | – | >100^A µg/mg | >200^A µg/ml | – | – |
| O=c1cc(-c2ccccc2)oc2cc(O)cc(O)c12 [Chrysin, 5,7-Dihydroxyflavone] | intermediate radical scavenging activity | – | 21.38 ± 1.86 AAE μg of ascorbic acid/g | 21.38 ± 1.86^F AAE μg | >100^B µg/ml | – | >100^A µg/mg | >100^B µg/ml | low xanthine oxidase inhibitory activity | > 393 |
